Experiments:
Assay in all cases: cell viability (% survival relative to DMSO control); higher = less cytotoxic
Conditions in all cases: 72 h
BV-173 = test system: BV-173
Protocol: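 8x8 drug-combination matrices (0–5000 nM; rosiglitazone and lestaurtinib 0–1000 nM) were run in BV-173 cells for 72 h with CellTiter-Glo read-out. Survival is normalised to DMSO and 10 µM bortezomib and clipped at 100%.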

MV4-11 = test system: MV4-11
Protocol: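 8x8 drug-combination matrices (0–5000 nM; rosiglitazone and lestaurtinib 0–1000 nM) were run in MV4-11 cells for 72 h with CellTiter-Glo read-out. Survival is normalised to DMSO and 10 µM bortezomib and clipped at 100%.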

Mono-Mac-6 = test system: Mono-Mac-6
Protocol: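 8x8 drug-combination matrices (0–5000 nM; rosiglitazone and lestaurtinib 0–1000 nM) were run in Mono-Mac-6 cells for 72 h with CellTiter-Glo read-out. Survival is normalised to DMSO and 10 µM bortezomib and clipped at 100%.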

CN(C)CCNC(=O)c1cccn2c(=O)c3cc4ccccc4cc3nc12 [Bmh-21] + O=C(O)CC[N+](=O)[O-] [3-nitropropionic acid]
cell viability [%]
Conditions	drug1 concentration 5 nM	drug1 concentration 10 nM	drug1 concentration 50 nM	drug1 concentration 100 nM	drug1 concentration 500 nM	drug1 concentration 1000 nM	drug1 concentration 5000 nM
BV-173, drug2 concentration 5 nM	> 100	> 100	> 100	95.6	6.08	1.91	0.1
BV-173, drug2 concentration 10 nM	94.1	> 100	> 100	> 100	19.6	3.29	-1.01
BV-173, drug2 concentration 50 nM	> 100	79.4	83.4	> 100	0.68	35.3	-0.78
BV-173, drug2 concentration 100 nM	82.9	> 100	> 100	94.8	2.69	-0.53	0.59
BV-173, drug2 concentration 500 nM	> 100	86.6	88.3	> 100	38.2	68	-0.99
BV-173, drug2 concentration 1000 nM	92	> 100	> 100	66.9	10.4	-1.13	0.46
BV-173, drug2 concentration 5000 nM	> 100	> 100	> 100	99.5	0.21	-1.32	0
MV4-11, drug2 concentration 5 nM	92.2	> 100	96.9	80.6	72.2	88.4	29.9
MV4-11, drug2 concentration 10 nM	> 100	> 100	> 100	> 100	39.5	77.4	34.1
MV4-11, drug2 concentration 50 nM	91.9	88.3	90.3	> 100	73.8	78.7	57.4
MV4-11, drug2 concentration 100 nM	81.9	> 100	> 100	93.2	77.6	84.5	91.6
MV4-11, drug2 concentration 500 nM	> 100	99.8	96.2	95.9	> 100	96.8	11.1
MV4-11, drug2 concentration 1000 nM	90.9	89.5	> 100	98.2	> 100	57.3	68.4
MV4-11, drug2 concentration 5000 nM	> 100	77.9	66.9	> 100	62.8	59.4	43.1
Mono-Mac-6, drug2 concentration 5 nM	76.5	> 100	> 100	83.1	56.5	60.2	63.5
Mono-Mac-6, drug2 concentration 10 nM	> 100	> 100	> 100	> 100	70.1	83.3	45.7
Mono-Mac-6, drug2 concentration 50 nM	> 100	91.1	87	> 100	63.6	67.4	49.9
Mono-Mac-6, drug2 concentration 100 nM	98.2	> 100	> 100	79.8	73.9	74.2	> 100
Mono-Mac-6, drug2 concentration 500 nM	90.6	> 100	91.9	> 100	> 100	72.2	44.8
Mono-Mac-6, drug2 concentration 1000 nM	96.3	97	88.2	90.7	> 100	83.4	83.5
Mono-Mac-6, drug2 concentration 5000 nM	> 100	76.8	> 100	> 100	67.5	61	69.3

Oc1ncc(F)c(O)n1 [5-fluorouracil] + C[C@]12O[C@H](C[C@]1(O)CO)n1c3ccccc3c3c4c(c5c6ccccc6n2c5c31)CNC4=O [Lestaurtinib]
cell viability [%]
Conditions	drug1 concentration 5 nM	drug1 concentration 10 nM	drug1 concentration 50 nM	drug1 concentration 100 nM	drug1 concentration 500 nM	drug1 concentration 1000 nM	drug1 concentration 5000 nM
BV-173, drug2 concentration 1 nM	> 100	> 100	> 100	> 100	86.1	79.2	47.6
BV-173, drug2 concentration 5 nM	> 100	81.2	85.7	86.6	> 100	82.8	69.9
BV-173, drug2 concentration 10 nM	93	95.9	87.7	> 100	72.4	74.2	71.8
BV-173, drug2 concentration 50 nM	60.2	59.9	50	68.2	58.5	59.2	35
BV-173, drug2 concentration 100 nM	68	43.6	46.5	47.5	40.6	44.3	20.2
BV-173, drug2 concentration 500 nM	18.1	36.8	20.9	25.8	20.4	20.7	9.65
BV-173, drug2 concentration 1000 nM	19.6	37.9	24.6	30.9	42.5	27.9	8.5
MV4-11, drug2 concentration 1 nM	88.4	> 100	> 100	88.1	69.4	68.5	12.8
MV4-11, drug2 concentration 5 nM	70.5	43	50.6	46	55.2	41.9	21.9
MV4-11, drug2 concentration 10 nM	26.4	23.6	28.6	42.1	19	25.7	13.7
MV4-11, drug2 concentration 50 nM	2.49	4.72	2.14	3.46	4.09	5.74	1.61
MV4-11, drug2 concentration 100 nM	3.32	0.99	1.1	1.76	0.68	3.09	-0.36
MV4-11, drug2 concentration 500 nM	0.17	-0.1	1.37	1.89	0.91	0.05	0.08
MV4-11, drug2 concentration 1000 nM	-1.49	-0.48	0.53	3.29	2.21	1.49	0.17
Mono-Mac-6, drug2 concentration 1 nM	> 100	> 100	> 100	98	81.7	66.8	43.8
Mono-Mac-6, drug2 concentration 5 nM	> 100	62.4	76.5	65.3	69.7	54.7	48
Mono-Mac-6, drug2 concentration 10 nM	58.5	59.6	61.9	68	42.9	54.4	50.9
Mono-Mac-6, drug2 concentration 50 nM	20.5	20.9	19	21.8	19.7	19.4	21.1
Mono-Mac-6, drug2 concentration 100 nM	15.4	11.6	14.2	12.9	8.95	10.9	7.36
Mono-Mac-6, drug2 concentration 500 nM	1.8	1.6	3.44	3.7	1.89	2.85	1.13
Mono-Mac-6, drug2 concentration 1000 nM	-0.9	1.2	0.62	2.92	5.56	0.83	0

CN(C)C(=O)n1nnnc1Cc1ccc(-c2ccccc2)cc1 + CCOC(=O)N1c2ccc(C(F)(F)F)cc2[C@@H](N(Cc2cc(C(F)(F)F)cc(C(F)(F)F)c2)C(=O)OC)C[C@H]1CC [Torcetrapib]
cell viability [%]
Conditions	drug1 concentration 5 nM	drug1 concentration 10 nM	drug1 concentration 50 nM	drug1 concentration 100 nM	drug1 concentration 500 nM	drug1 concentration 1000 nM	drug1 concentration 5000 nM
BV-173, drug2 concentration 5 nM	> 100	> 100	> 100	83.6	86.7	61	-1.29
BV-173, drug2 concentration 10 nM	79.6	99.9	97.9	77.9	64.3	67	-0.12
BV-173, drug2 concentration 50 nM	70.5	94.4	69.5	70.6	61	53.7	1.13
BV-173, drug2 concentration 100 nM	62.8	69	80.1	87.3	> 100	45.6	-0.25
BV-173, drug2 concentration 500 nM	73.5	> 100	> 100	83.8	95.5	86	0.45
BV-173, drug2 concentration 1000 nM	80.8	68.8	94.8	94.5	> 100	71.3	1.28
BV-173, drug2 concentration 5000 nM	61.4	64.7	62	69.6	77.6	24.2	0
MV4-11, drug2 concentration 5 nM	> 100	95	> 100	89.1	76.8	> 100	0.81
MV4-11, drug2 concentration 10 nM	94.9	96	> 100	85	74.3	79.8	3.27
MV4-11, drug2 concentration 50 nM	> 100	> 100	> 100	87.6	88.5	97.3	4.29
MV4-11, drug2 concentration 100 nM	> 100	> 100	> 100	> 100	> 100	77.1	1.95
MV4-11, drug2 concentration 500 nM	> 100	> 100	> 100	98	> 100	> 100	1.23
MV4-11, drug2 concentration 1000 nM	98	99.8	85.5	93	99.7	> 100	2.41
MV4-11, drug2 concentration 5000 nM	98.2	> 100	> 100	98.2	> 100	94.2	2.53
Mono-Mac-6, drug2 concentration 5 nM	> 100	> 100	> 100	> 100	82.7	86.1	-0.88
Mono-Mac-6, drug2 concentration 10 nM	93	86.3	> 100	92	69	90.7	0.43
Mono-Mac-6, drug2 concentration 50 nM	> 100	89.7	93.7	95.9	> 100	58.1	1.57
Mono-Mac-6, drug2 concentration 100 nM	89	> 100	> 100	> 100	> 100	96.6	0.14
Mono-Mac-6, drug2 concentration 500 nM	91.9	> 100	> 100	97	> 100	> 100	0.52
Mono-Mac-6, drug2 concentration 1000 nM	99.7	86.5	98.8	> 100	> 100	> 100	2.08
Mono-Mac-6, drug2 concentration 5000 nM	90.6	88.3	> 100	93.4	> 100	74.2	0
